Like-named read-outs stand apart in the source and are kept apart here.
Experiments:
Assay type in all cases: cell-based
[1] = target: T1, β-adrenergic receptor (β1), guinea-pig right atrium (Cavia porcellus, UniProt H0W3H1); experiment: Guinea-pig right atrium (β1): inhibition of isoprenaline-induced increase in heart rate; details: isolated guinea-pig right atrium, drug incubation 30 min, 37.5° C.
T1 construct: Spontaneously beating right atria are dissected from guinea-pigs; from tissue; host or cells: guinea-pig right atrium (strip with sinoatrial node)
T1 sequence (H0W3H1 1-470): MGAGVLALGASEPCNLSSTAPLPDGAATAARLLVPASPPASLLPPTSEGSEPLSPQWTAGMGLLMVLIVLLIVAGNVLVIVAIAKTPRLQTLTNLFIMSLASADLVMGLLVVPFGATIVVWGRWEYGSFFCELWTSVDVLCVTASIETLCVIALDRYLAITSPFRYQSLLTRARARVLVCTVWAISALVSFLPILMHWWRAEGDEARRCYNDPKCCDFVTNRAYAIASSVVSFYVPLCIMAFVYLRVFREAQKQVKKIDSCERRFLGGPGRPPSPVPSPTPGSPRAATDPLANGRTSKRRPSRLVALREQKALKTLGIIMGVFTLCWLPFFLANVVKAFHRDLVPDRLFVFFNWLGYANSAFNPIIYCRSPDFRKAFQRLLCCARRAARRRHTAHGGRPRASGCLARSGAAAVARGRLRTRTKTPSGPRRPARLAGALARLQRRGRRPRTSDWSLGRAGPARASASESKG
Method: 1. GUINEA-PIG RIGHT ATRIUM (β1)
Spontaneously beating right atria are dissected from guinea-pigs (400±50 g). A triangular strip of atrium, including the sinoatrial node is excised together with the anterior vena cava.
The vena is fixed to a glass muscle holder and the opposite atrial muscle is connected to a Grass isometric transducer. Atria are suspended at optimal preload in a 100 ml Krebs-Henseleit solution, containing 2 g/l glucose, at 37.5° C. and aerated with 95% O2 and 5% CO2.
Heart rate and contractile force are recorded by means of a Grass FTO3C isometric transducer. Output signals amplified by an isometric transducer amplifier (J.S.I.) via a cardiotachometer (J.S.I.) are recorded on a Honeywell XYY' recorder. […] This produces a dose related increase in heart rate (a). After washing out isoprenaline a stabilization period of 15 min. is allowed. A drug is then added to the bath fluid for 30 min. During this incubation period possible direct chronotropic and inotropic effects of the drug are determined. Following this, a second dose-response curve for isoprenaline is produced by infusion during 10 minutes (b). The slope of the increase in rate is graphically estimated for each period of isoprenaline addition and the ratio b/a is calculated. Based on solvent experiments a ratio of less than 0.70 is considered as the criterion of inhibitory activity. ED50 -values are estimated graphically.

[2] = tested on: β-adrenergic receptor (β2), guinea-pig tracheal ring; experiment: Guinea-pig tracheal ring (β2): inhibition of isoprenaline-induced relaxation; details: ratio of ED50 tracheal ring / ED50 right atrium; for β2/β1 (ratio of the ED50 values, tracheal ring to right atrium; index of cardioselectivity): Table I
From the text: (§1) 2. GUINEA-PIG TRACHEAL RING (β2)
(§2) The trachea is dissected from guinea-pigs (400±50 g). Four rings, approximately 8 mm in width, are then cut from each trachea. Cartilaginous parts of the tracheal ring are mounted horizontally between two metal rods, one of which is attached to a glass organholder, the other rod being connected to a Grass isometric transducer. Using such a technique the tracheal smooth muscle is suspended optimally i.e. midway between the cartilaginous parts. the prepared rings are suspended in a 100 ml organ chamber filled with Tyrode solution, maintained at 35° C. and aerated with 95% O2 and 5% CO2. The preparation is maintained at tension of 1.5 g throughout the experiment. Tension changes recorded are thus an expression of contraction or relaxation. After a stabilization period of 30 min contraction is induced by adding methacholine (1 μg/ml) to the bath for a 10 min period. Addition of isoprenaline (0.08 μg/ml) for 4 min. in the presence of methacholine induces a relaxation of the tracheal ring. This procedure is repeated twice before adding the drug (t-33'; t-19') and once 30 min after addition of the drug. During the incubation period any direct effects of the drug are measured. A 50% inhibition of the agonist-induced response is used as the criterion of effectiveness and ED50 values (with fiducial limits) are determined by probit analysis.
(§3) The ratio of the ED50 -values obtained in respectively the tracheal ring test (β2) and in the right atrium test (β1) may be considered as an index of the cardioselectivity of the test drug.

[3] = target: T2, β-adrenergic receptor (β2), guinea-pig tracheal ring (Cavia porcellus, UniProt Q8K4Z4); experiment: as above; details: guinea-pig tracheal ring, methacholine 1 μg/ml, isoprenaline 0.08 μg/ml, 35° C., read-out: β2 = ED50 tracheal ring (converted)
T2 construct: The trachea is dissected from guinea-pigs; from tissue; host or cells: guinea-pig tracheal smooth muscle (rings)
T2 sequence (Q8K4Z4 whole entry): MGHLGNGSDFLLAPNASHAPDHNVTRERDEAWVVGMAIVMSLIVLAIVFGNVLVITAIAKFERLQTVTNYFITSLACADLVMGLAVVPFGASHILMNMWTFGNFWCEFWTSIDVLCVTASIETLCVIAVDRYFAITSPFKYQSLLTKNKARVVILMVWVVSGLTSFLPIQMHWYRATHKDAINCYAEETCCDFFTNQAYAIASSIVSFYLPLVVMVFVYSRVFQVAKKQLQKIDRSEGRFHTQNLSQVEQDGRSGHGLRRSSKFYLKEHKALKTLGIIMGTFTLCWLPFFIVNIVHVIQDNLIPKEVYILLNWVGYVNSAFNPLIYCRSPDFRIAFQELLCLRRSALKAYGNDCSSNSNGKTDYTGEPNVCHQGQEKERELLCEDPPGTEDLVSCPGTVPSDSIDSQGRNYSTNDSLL
From the text: as §1, §2, §3

[4] = Table I, ED50 estimated graphically
[5] = Table I, 30 min after drug, probit analysis

CCCc1ccc(OCC(O)CN2CCCC(Cn3c(=O)[nH]c4cc(F)ccc43)C2)cc1 (stereo not drawn) [4-(nC3 H7)C6 H4,5-F]
IC50 [1, 4]: 22.6 nM
β2/β1 (ratio of the ED50 values, tracheal ring to right atrium; index of cardioselectivity) [2]: 63
IC50 [3, 5]: 1430 nM

O=c1[nH]c2ccccc2n1CC1CCCN(CC(O)COc2ccccc2Br)C1 (stereo not drawn) [2-BrC6 H4, H]
IC50 [1, 4]: 5.43 nM
β2/β1 (ratio of the ED50 values, tracheal ring to right atrium; index of cardioselectivity) [2]: 22
IC50 [3, 5]: 119 nM

O=c1[nH]c2ccc(Cl)cc2n1CC1CCCN(CC(O)COc2cccc3ccccc23)C1 (stereo not drawn) [1-naphthalenyl, 6-Cl]
IC50 [1, 4]: 10.7 nM
β2/β1 (ratio of the ED50 values, tracheal ring to right atrium; index of cardioselectivity) [2]: 32
IC50 [3, 5]: 343 nM

Cc1cccc(OCC(O)CN2CCCC(Cn3c(=O)[nH]c4ccccc43)C2)c1C (stereo not drawn) [2,3-(CH3)2C6 H3, H]
IC50 [1, 4]: 6.1 nM
β2/β1 (ratio of the ED50 values, tracheal ring to right atrium; index of cardioselectivity) [2]: 8
IC50 [3, 5]: 48.8 nM

CSc1ccc(OCC(O)CN2CCCC(Cn3c(=O)[nH]c4ccccc43)C2)cc1 (stereo not drawn) [4-(CH3 S)C6 H4, H]
IC50 [1, 4]: 1.47 nM
β2/β1 (ratio of the ED50 values, tracheal ring to right atrium; index of cardioselectivity) [2]: 32
IC50 [3, 5]: 46.8 nM

O=c1[nH]c2ccccc2n1CC1CCCN(CC(O)COc2ccc(Cl)cc2)C1 (stereo not drawn) [4-ClC6 H4, H]
IC50 [1, 4]: 48.1 nM
β2/β1 (ratio of the ED50 values, tracheal ring to right atrium; index of cardioselectivity) [2]: 16
IC50 [3, 5]: 769 nM

C=CCc1ccccc1OCC(O)CN1CCCC(Cn2c(=O)[nH]c3ccccc32)C1 (stereo not drawn) [2-(CH2CHCH2)C6 H4, H]
IC50 [1, 4]: 5.93 nM
β2/β1 (ratio of the ED50 values, tracheal ring to right atrium; index of cardioselectivity) [2]: 14
IC50 [3, 5]: 85.4 nM

CC(C)Oc1ccccc1OCC(O)CN1CCCC(Cn2c(=O)[nH]c3ccccc32)C1 (stereo not drawn) [2-(iC3 H7 O)C6 H4, H]
IC50 [1, 4]: 11.4 nM
β2/β1 (ratio of the ED50 values, tracheal ring to right atrium; index of cardioselectivity) [2]: 8
IC50 [3, 5]: 91 nM

CC(=O)c1ccccc1OCC(O)CN1CCCC(Cn2c(=O)[nH]c3ccccc32)C1 (stereo not drawn) [2-(CH3 CO)C6 H4, H]
IC50 [1, 4]: 2.95 nM
β2/β1 (ratio of the ED50 values, tracheal ring to right atrium; index of cardioselectivity) [2]: 1
IC50 [3, 5]: 2.95 nM

O=c1[nH]c2ccccc2n1CC1CCCN(CC(O)COc2ccc(Br)cc2)C1 (stereo not drawn) [4-BrC6 H4, H]
IC50 [1, 4]: 10.9 nM
β2/β1 (ratio of the ED50 values, tracheal ring to right atrium; index of cardioselectivity) [2]: 250
IC50 [3, 5]: 2720 nM

O=c1[nH]c2ccccc2n1CC1CCCN(CC(O)COc2ccc(F)cc2)C1 (stereo not drawn) [4-FC6 H4, H]
IC50 [1, 4]: 3.13 nM
β2/β1 (ratio of the ED50 values, tracheal ring to right atrium; index of cardioselectivity) [2]: 8
IC50 [3, 5]: 25 nM

CCOc1ccccc1OCC(O)CN1CCCC(Cn2c(=O)[nH]c3ccccc32)C1 (stereo not drawn) [2-(C2 H5 O)C6 H4, H]
IC50 [1, 4]: 5.88 nM
β2/β1 (ratio of the ED50 values, tracheal ring to right atrium; index of cardioselectivity) [2]: 4
IC50 [3, 5]: 23.5 nM

O=c1[nH]c2cc(Cl)ccc2n1CC1CCCN(CC(O)COc2ccccc2)C1 (stereo not drawn) [C6 H5,5-Cl]
IC50 [1, 4]: 12 nM
β2/β1 (ratio of the ED50 values, tracheal ring to right atrium; index of cardioselectivity) [2]: 16
IC50 [3, 5]: 192 nM

Cc1cc(OCC(O)CN2CCCC(Cn3c(=O)[nH]c4ccccc43)C2)cc(C)c1Cl (stereo not drawn) [3,5-(CH3)2-4-ClC6 H2, H]
IC50 [1, 4]: 5.63 nM
β2/β1 (ratio of the ED50 values, tracheal ring to right atrium; index of cardioselectivity) [2]: 500
IC50 [3, 5]: 2820 nM

COc1ccccc1OCC(O)CN1CCCC(Cn2c(=O)[nH]c3ccccc32)C1 (stereo not drawn) [2-(CH3 O)C6 H4, H, 1,3-dihydro-1-{1-[2-hydroxy-3-(2-methoxyphenoxy)propyl]-3-piperidinylmethyl}-2H-benzimidazol-2-one]
IC50 [1, 4]: 2.43 nM
β2/β1 (ratio of the ED50 values, tracheal ring to right atrium; index of cardioselectivity) [2]: 5
IC50 [3, 5]: 12.2 nM

COc1ccc(OCC(O)CN2CCCC(Cn3c(=O)[nH]c4ccccc43)C2)cc1 (stereo not drawn) [4-(CH3 O)C6 H4, H]
IC50 [1, 4]: 24.3 nM
β2/β1 (ratio of the ED50 values, tracheal ring to right atrium; index of cardioselectivity) [2]: 2
IC50 [3, 5]: 48.6 nM

O=c1[nH]c2ccccc2n1CC1CCCN(CC(O)C2COc3ccccc3O2)C1 (stereo not drawn) [1-{1-[2-(2,3-dihydro-1,4-benzodioxin-2-yl)-2-hydroxyethyl]-3-piperidinylmethyl}-1,3-dihydro-2H-benzimidazol-2-one]
IC50 ([1]; Table II, read-out: β1 = ED50 right atrium (converted)): 12.2 nM
β2/β1 (ratio of the ED50 values; index of cardioselectivity) ([2]; Table II): 4
IC50 ([3]; Table II): 48.8 nM

CCOc1ccccc1OCC(O)CN1CCCC(Cn2c(=O)[nH]c3ccc(Cl)cc32)C1 (stereo not drawn) [2-(C2 H5 O)C6 H4,6-Cl]
IC50 [1, 4]: 21.7 nM
β2/β1 (ratio of the ED50 values, tracheal ring to right atrium; index of cardioselectivity) [2]: 18
IC50 [3, 5]: 391 nM

CCc1ccccc1OCC(O)CN1CCCC(Cn2c(=O)[nH]c3ccccc32)C1 (stereo not drawn) [2-(C2 H5)C6 H4, H]
IC50 [1, 4]: 6.1 nM
β2/β1 (ratio of the ED50 values, tracheal ring to right atrium; index of cardioselectivity) [2]: 8
IC50 [3, 5]: 48.8 nM

O=c1[nH]c2cc(Cl)ccc2n1CC1CCCN(CC(O)COc2ccc(F)cc2)C1 (stereo not drawn) [4-FC6 H4,5-Cl]
IC50 [1, 4]: 11.5 nM
β2/β1 (ratio of the ED50 values, tracheal ring to right atrium; index of cardioselectivity) [2]: 62
IC50 [3, 5]: 714 nM

COc1ccccc1OCC(O)CN1CCCC(Cn2c(=O)[nH]c3ccc(Cl)cc32)C1 (stereo not drawn) [2-(CH3 O)C6 H4,6-Cl, 6-chloro-1,3-dihydro-1-{1-[2-hydroxy-3-(2-methoxyphenoxy)propyl]-3-piperidinylmethyl}-2H-benzimidazol-2-one]
IC50 [1, 4]: 1.41 nM
β2/β1 (ratio of the ED50 values, tracheal ring to right atrium; index of cardioselectivity) [2]: 63
IC50 [3, 5]: 89.7 nM

O=c1[nH]c2ccc(Cl)cc2n1CC1CCCN(CC(O)COc2ccc(F)cc2)C1 (stereo not drawn) [4-FC6 H4,6-Cl]
IC50 [1, 4]: 11.5 nM
β2/β1 (ratio of the ED50 values, tracheal ring to right atrium; index of cardioselectivity) [2]: 16
IC50 [3, 5]: 184 nM

N#Cc1ccccc1OCC(O)CN1CCCC(Cn2c(=O)[nH]c3ccc(Cl)cc32)C1 (stereo not drawn) [2-CNC6 H4,6-Cl]
IC50 [1, 4]: 11.3 nM
β2/β1 (ratio of the ED50 values, tracheal ring to right atrium; index of cardioselectivity) [2]: 16
IC50 [3, 5]: 181 nM

C=CCOc1ccccc1OCC(O)CN1CCCC(Cn2c(=O)[nH]c3ccccc32)C1 (stereo not drawn) [2-(CH2CHCH2 O)C6 H4, H]
IC50 [1, 4]: 2.86 nM
β2/β1 (ratio of the ED50 values, tracheal ring to right atrium; index of cardioselectivity) [2]: 16
IC50 [3, 5]: 45.7 nM

CC(=O)Nc1ccc(OCC(O)CN2CCCC(Cn3c(=O)[nH]c4ccccc43)C2)cc1 (stereo not drawn) [4-(CH3 CONH)C6 H4, H]
IC50 [1, 4]: 5.7 nM
β2/β1 (ratio of the ED50 values, tracheal ring to right atrium; index of cardioselectivity) [2]: 72
IC50 [3, 5]: 410 nM

O=c1[nH]c2ccccc2n1CC1CCCN(CC(O)COc2ccccc2)C1 (stereo not drawn) [C6 H5, H]
IC50 [1, 4]: 1.65 nM
β2/β1 (ratio of the ED50 values, tracheal ring to right atrium; index of cardioselectivity) [2]: 15
IC50 [3, 5]: 23.3 nM

O=c1[nH]c2cc(F)ccc2n1CC1CCCN(CC(O)COc2ccccc2)C1 (stereo not drawn) [C6 H5,5-F]
IC50 [1, 4]: 3.13 nM
β2/β1 (ratio of the ED50 values, tracheal ring to right atrium; index of cardioselectivity) [2]: 4
IC50 [3, 5]: 12.5 nM

O=c1[nH]c2ccccc2n1CC1CCCN(CC(O)COc2cccc3ccccc23)C1 (stereo not drawn) [1-naphthalenyl, H]
IC50 [1, 4]: 23.2 nM
β2/β1 (ratio of the ED50 values, tracheal ring to right atrium; index of cardioselectivity) [2]: 125
IC50 [3, 5]: 2900 nM

CCCCNC(=O)Nc1ccc(OCC(O)CN2CCCC(Cn3c(=O)[nH]c4ccccc43)C2)cc1 (stereo not drawn) [4-(nC4 H9NHCONH)C6 H4, H]
IC50 [1, 4]: 20.2 nM
β2/β1 (ratio of the ED50 values, tracheal ring to right atrium; index of cardioselectivity) [2]: 8
IC50 [3, 5]: 161 nM

CCCOc1ccccc1OCC(O)CN1CCCC(Cn2c(=O)[nH]c3ccccc32)C1 (stereo not drawn) [2-(nC3 H7 O)C6 H4, H]
IC50 [1, 4]: 5.69 nM
β2/β1 (ratio of the ED50 values, tracheal ring to right atrium; index of cardioselectivity) [2]: 4
IC50 [3, 5]: 22.8 nM

CC(=O)c1ccc(OCC(O)CN2CCCC(Cn3c(=O)[nH]c4ccccc43)C2)cc1 (stereo not drawn) [4-(CH3 CO)C6 H4, H]
IC50 [1, 4]: 5.9 nM
β2/β1 (ratio of the ED50 values, tracheal ring to right atrium; index of cardioselectivity) [2]: 8
IC50 [3, 5]: 47.2 nM

Cc1cccc(OCC(O)CN2CCCC(Cn3c(=O)[nH]c4ccccc43)C2)c1 (stereo not drawn) [3-(CH3)C6 H4, H]
IC50 [1, 4]: 6.32 nM
β2/β1 (ratio of the ED50 values, tracheal ring to right atrium; index of cardioselectivity) [2]: 8
IC50 [3, 5]: 50.6 nM

N#Cc1ccccc1OCC(O)CN1CCCC(Cn2c(=O)[nH]c3ccccc32)C1 (stereo not drawn) [2-CNC6 H4, H]
IC50 [1, 4]: 6.15 nM
β2/β1 (ratio of the ED50 values, tracheal ring to right atrium; index of cardioselectivity) [2]: 2
IC50 [3, 5]: 12.3 nM
